In one series the test system is bacteria. The series is described as follows: Antibacterial activity, overall statement on the examples. The format is cell-based. As to conditions: concentration of 1 μg/ml. From the text:
Erythromycin was used as the control.

In another series the test system is Caco-2 cells. The experiment in a line: Cytotoxicity tests, viability of Caco-2 cells (LDH, WST-1 and ATP methods). The format is cell-based, human. The note with it: 500 μM, exposure 24 hours. The protocol: Caco-2 cells (cell line used as a model for human intestine) were introduced in a 96 well plate in an amount of 35 000 cells (for LDH method), 45 000 cells (for WST-1 method), or 25 000 cells (for ATP method) per well. After cultivation of 24 hours, the cells were exposed to the compounds being tested for 24 hours by adding said compounds to the culture medium to give a concentration of 500 μM (as stock solutions in DMSO).
The influence of the compounds on the viability of the cells was measured by three different methods. Polymyxin B was used as the control. […] The amount of LDH in the sample due to exposure was quantified by means of an enzymatic reaction using the INT (iodonitrotetrazolium) colour reagent wherein the coloured reaction product formed was determined photometrically at 490 nm. In the WST-1 method, the metabolic activity of the cells after exposure was measured using the WST-1 reagent. Metabolic activity of a cell results in the generation of a coloured product from the reagent, said product being then used to evaluate the viability of the cells by photometric measurements (absorbance at 440 nm). In the ATP method, the amount of ATP within cells decreasing rapidly due to cellular damage was measured. In the method, ATP was luminometrically quantified by means of the ATP dependent luciferase-luciferin reaction. […]

Take `C=C(C)[C@@H]1CC[C@]2(C(=O)O)CC[C@]3(C)[C@H](CC[C@@H]4[C@@]5(C)CCC(=O)C(C)(C)[C@@H]5CC[C@]43C)[C@@H]12` [Yhdiste 5, betulonic acid]: in the series on bacteria, the antibacterial activity result was “considerable antibacterial activity”. Moreover, the cytotoxicity entry in the series with Caco-2 cells is “low cytotoxicity”. `C=C(C)[C@@H]1CC[C@]2(COC(=O)c3ccccc3NC(C)=O)CC[C@]3(C)C(CCC4[C@@]5(C)CC[C@H](O)C(C)(C)C5CC[C@]43C)C12` (stereo partly drawn) [Yhdiste 29, 28-N-acetylanthranilic acid ester of betulin]: the antibacterial activity entry in the series with bacteria is “considerable antibacterial activity”.

The record behind these values is patent US20100196290A1, “COMPOSITIONS COMPRISING BETULONIC ACID” (Valtion teknillinen tutkimuskeskus, priority 2006, published 2010).
